From ChEMBL document CHEMBL5528044, “Exploring the Function of (+)-Naltrexone Precursors: Their Activity as TLR4 Antagonists and Potential in Treating Morphine Addiction” (J Med Chem, 2024) come the findings set out here.

One assay concerns the target T1, Toll-like receptor 4 (Mus musculus, UniProt Q9QUK6).
T1 sequence (Q9QUK6 whole entry): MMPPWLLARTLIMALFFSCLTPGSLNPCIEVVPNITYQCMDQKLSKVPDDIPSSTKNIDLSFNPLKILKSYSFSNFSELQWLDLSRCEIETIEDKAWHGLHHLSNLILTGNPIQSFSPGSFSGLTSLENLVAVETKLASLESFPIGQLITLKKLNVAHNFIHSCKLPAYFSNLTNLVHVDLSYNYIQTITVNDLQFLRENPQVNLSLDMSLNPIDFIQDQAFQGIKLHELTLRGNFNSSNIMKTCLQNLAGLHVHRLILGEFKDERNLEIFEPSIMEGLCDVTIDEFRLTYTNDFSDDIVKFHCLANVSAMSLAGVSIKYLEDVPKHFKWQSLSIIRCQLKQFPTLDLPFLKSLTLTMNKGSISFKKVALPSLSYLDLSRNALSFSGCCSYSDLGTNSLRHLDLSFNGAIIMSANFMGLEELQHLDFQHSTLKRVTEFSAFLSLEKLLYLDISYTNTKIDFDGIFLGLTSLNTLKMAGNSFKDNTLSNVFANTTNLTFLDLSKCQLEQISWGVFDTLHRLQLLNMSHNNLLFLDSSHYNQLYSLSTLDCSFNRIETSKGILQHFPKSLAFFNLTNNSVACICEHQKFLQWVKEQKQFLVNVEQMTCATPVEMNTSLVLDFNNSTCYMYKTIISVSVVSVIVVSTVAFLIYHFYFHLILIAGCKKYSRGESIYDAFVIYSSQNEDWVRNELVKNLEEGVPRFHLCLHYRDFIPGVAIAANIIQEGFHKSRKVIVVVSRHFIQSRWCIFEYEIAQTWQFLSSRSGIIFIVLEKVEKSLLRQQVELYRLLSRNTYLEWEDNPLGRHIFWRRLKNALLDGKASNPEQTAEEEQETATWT
The experiment in a line: Antagonist activity at TLR4 in mouse BV-2 cells assessed as inhibition of LPS-induced NO overproduction incubated for 24 hrs by 2,3-diaminonaphthalene reagent based microplate reader analysis. Type of assay: cell-based.

Assay [1] has as its target T2, Toll-like receptor 4 (Mus musculus) (UniProt Q9QUK6).
T2 sequence (whole entry): T1 sequence (Q9QUK6 whole entry)
The experiment in a line: Antagonist activity at TLR4 signaling pathway in mouse BV-2 cells assessed as downregulation of LPS-induced IKKalpha phosphorylation at 5 uM incubated for 1 hr by Western blot analysis. It is filed as cell-based.

In assay [2] the target is T2, Toll-like receptor 4 (Mus musculus). The experiment in a line: Antagonist activity at TLR4 signaling pathway in mouse BV-2 cells assessed as inhibition of LPS-induced MyD88 recruitment at 5 uM incubated for 1 hr by co-immunoprecipitation based Western blot analysis. Type of assay: cell-based. On the technique in general: A western blot detects proteins with antibodies after separation by electrophoresis.

Assay [3] has the same target. The experiment in a line: Antagonist activity at TLR4 signaling pathway in mouse BV-2 cells assessed as downregulation of LPS-induced IRF-3 phosphorylation at 5 uM incubated for 1 hr by Western blot analysis. It is filed as cell-based.
Assay [4] has the same target. The experiment in a line: Antagonist activity at TLR4 in mouse BV-2 cells assessed as inhibition of LPS-induced TNF-alpha production at 0.01 to 100 uM by ELISA. Type of assay: cell-based. As to conditions: dose 0.01-100 µM. For orientation: In an ELISA, binding on a coated surface is turned into a signal by an enzyme label.
The target is the same in assay [5]. The experiment in a line: Antagonist activity at TLR4 signaling pathway in mouse BV-2 cells assessed as downregulation of LPS-induced ERK phosphorylation at 5 uM incubated for 1 hr by Western blot analysis. Type of assay: cell-based.
The target is the same in assay [6]. The experiment in a line: Antagonist activity at TLR4 signaling pathway in mouse BV-2 cells assessed as downregulation of LPS-induced JNK phosphorylation at 5 uM incubated for 1 hr by Western blot analysis. It is filed as cell-based.
For assay [7] the target is unchanged. The experiment in a line: Antagonist activity at TLR4 signaling pathway in mouse BV-2 cells assessed as inhibition of LPS-induced TRIF recruitment at 5 uM incubated for 1 hr by co-immunoprecipitation based Western blot analysis. Type of assay: cell-based.
For assay [8] the target is unchanged. The experiment in a line: Antagonist activity at TLR4 signaling pathway in mouse BV-2 cells assessed as downregulation of LPS-induced IKKbeta phosphorylation at 5 uM incubated for 1 hr by Western blot analysis. It is filed as cell-based.
Assay [9] has the same target. The experiment in a line: Antagonist activity at TLR4 in mouse BV-2 cells assessed as inhibition of LPS-induced NF-kappaB activation at 4 uM incubated for 24 hrs by dual-glo luciferase assay. Type of assay: cell-based.
Assay [10] concerns Mus musculus. The experiment in a line: Inhibition of chronic morphine-induced microglia activation in Balb/c mouse assessed as reduction in Iba1 expression in brain ventral tegmental area region at 0.2 mg/kg,ip administrated for 6 consecutive days by immunofluorescence staining based analysis. Type of assay: functional, organism-based.
Assay [11] concerns Mus musculus. The experiment in a line: Inhibition of chronic morphine-induced microglia activation in Balb/c mouse assessed as reduction in Iba1 expression in nucleus accumbens region at 0.2 mg/kg,ip administrated for 6 consecutive days by immunofluorescence staining based analysis. Type of assay: functional, organism-based.
Assay [12] relates to Mus musculus. The experiment in a line: Inhibition of morphine-induced addiction behavior in Balb/c mouse assessed as decrease in locomotor activity at 0.2 mg/kg,ip administrated on day 4 to 10 by open-field test. Type of assay: functional, organism-based. As to conditions: time 7.0 day.
Assay [13] has as its system Mus musculus. The experiment in a line: Inhibition of morphine-induced addiction behavior in Balb/c mouse assessed reduction in CPP score at 0.2 mg/kg,ip administrated for 6 consecutive days by conditioned place preference assay. It is filed as functional, organism-based.
The subject of assay [14] is Mus musculus. The experiment in a line: Inhibition of chronic morphine-induced microglia activation in Balb/c mouse assessed as reduction in TNF-alpha mRNA expression in brain nucleus accumbens region at 0.2 mg/kg,ip administrated for 6 consecutive days by qPCR analysis. It is filed as functional, organism-based.
In assay [15] the test system is Mus musculus. The experiment in a line: Inhibition of chronic morphine-induced microglia activation in Balb/c mouse assessed as reduction in TNF-alpha mRNA expression in brain medial prefrontal cortex region at 0.2 mg/kg,ip administrated for 6 consecutive days by qPCR analysis. Type of assay: functional, organism-based. (Quantitative PCR measures a nucleic acid by following its amplification.)

Assay [16] concerns Mus musculus. The experiment in a line: Inhibition of chronic morphine-induced microglia activation in Balb/c mouse assessed as reduction in TNF-alpha mRNA expression in brain ventral tegmental area region at 0.2 mg/kg,ip administrated for 6 consecutive days by qPCR analysis. Type of assay: functional, organism-based.
Assay [17] relates to Mus musculus. The experiment in a line: Inhibition of chronic morphine-induced microglia activation in Balb/c mouse assessed as reduction in microglia cell number in brain ventral tegmental area region at 0.2 mg/kg,ip administrated for 6 consecutive days by immunofluorescence staining based analysis. It is filed as functional, organism-based.
The subject of assay [18] is Mus musculus. The experiment in a line: Inhibition of chronic morphine-induced microglia activation in Balb/c mouse assessed as reduction in microglia cell number in brain medial prefrontal cortex region at 0.2 mg/kg,ip administrated for 6 consecutive days by immunofluorescence staining based analysis. It is filed as functional, organism-based.
Assay [19] deals with Mus musculus. The experiment in a line: Inhibition of chronic morphine-induced microglia activation in Balb/c mouse assessed as reduction in microglia cell number in brain nucleus accumbens region at 0.2 mg/kg,ip administrated for 6 consecutive days by immunofluorescence staining based analysis. Type of assay: functional, organism-based.
Assay [20] has as its system Mus musculus. The experiment in a line: Inhibition of chronic morphine-induced microglia activation in Balb/c mouse assessed as reduction in Iba1 expression in brain medial prefrontal cortex region at 0.2 mg/kg,ip administrated for 6 consecutive days by immunofluorescence staining based analysis. It is filed as functional, organism-based.

Active and inactive are the calls of the source. The rule behind the calls is not given here. Some results are limits rather than exact numbers.

What is called IC50 is the concentration that inhibits the measured activity by half. Consider `COc1ccc2c3c1O[C@@H]1C(OC)(OC)C(Br)C[C@@H]4[C@H](C2)N(C)CC[C@]341` (some centres not stated), for which the IC50 at Toll-like receptor 4 is more than 200 µM.
Take `COC1=C[C@@H]2[C@@H]3Cc4ccc(OC)c(O)c4[C@]2(CCN3C)CC1=O` [SINOMENINE]: the IC50 at Toll-like receptor 4 is more than 200 µM.
With `COC1=CC[C@@H]2[C@@H]3Cc4ccc(OC)c5c4[C@]2(CCN3C)[C@@H]1O5`, the half-inhibitory concentration (IC50) at Toll-like receptor 4 is more than 200 µM.
In the case of `COc1ccc2c3c1O[C@@H]1C(=O)C=C[C@@H]4[C@H](C2)N(C)CC[C@@]314`, the IC50 at Toll-like receptor 4 stood at 6.9 µM.
As to `CN1CC[C@@]23c4c5ccc(O)c4O[C@@H]2C(=O)CC[C@]3(O)[C@@H]1C5`, the result in assay [1], in [2], in [3], in assay [4], in [5] and in [6] was inactive. The outcome in assay [7], in assay [8] and in assay [9] was inactive. Also, on Toll-like receptor 4, the half-maximal inhibitory concentration (IC50) worked out at 33.5 µM.
Consider `COc1ccc2c3c1O[C@@H]1C(=O)CC[C@]4(OC(C)=O)[C@H](C2)N(C#N)CC[C@@]314`, for which, on Toll-like receptor 4, the IC50 is 67.8 µM.
For `COc1ccc2c3c1O[C@@H]1C(OC)(OC)CC[C@@H]4[C@H](C2)N(C)CC[C@]341`, the IC50 at Toll-like receptor 4 is more than 200 µM.
For the compound `COc1ccc2c3c1O[C@@H]1C(=O)CC[C@]4(OC(C)=O)[C@H](C2)N(C)CC[C@@]314`, the IC50 at Toll-like receptor 4 was more than 200 µM.
Consider `COc1ccc2c3c1O[C@@H]1C(=O)CC[C@@H]4[C@H](C2)N(C)CC[C@@]314`, for which the IC50 at Toll-like receptor 4 was more than 200 µM.
As for `O=C1CC[C@]2(O)[C@@H]3Cc4ccc(O)c5c4[C@]2(CCN3CC2CC2)[C@@H]1O5`, the inhibition result in the assay on Mus musculus [10], in the assay with Mus musculus [11], in the assay on Mus musculus [13], in the assay on Mus musculus [14], in the assay with Mus musculus [15] and in the assay with Mus musculus [16] was “inactive” each time. Besides, the inhibition result with Mus musculus [17], in the assay with Mus musculus [18], in the assay with Mus musculus [19] and with Mus musculus [20] was “inactive” each time. The inhibition entry in the assay on Mus musculus [12] is “Active”.
As to `COc1ccc2c(c1O)[C@@]13CCN(C)[C@@H](C2)[C@H]1CC(OC)C(=O)C3` (some centres not stated), the half-maximal inhibitory concentration (IC50) at Toll-like receptor 4 was more than 200 µM.
Consider `COc1ccc2c3c1O[C@@H]1C(=O)CC[C@]4(O)[C@H](C2)NCC[C@@]314`, for which the IC50 at Toll-like receptor 4 is more than 200 µM.
In the case of `COC1=CC=C2[C@@H]3Cc4ccc(OC)c5c4[C@]2(CCN3C)[C@@H]1O5`, the IC50 at Toll-like receptor 4 worked out at 197 µM.
Take `COc1ccc2c3c1O[C@@H]1C(=O)CC[C@]4(O)[C@H](C2)N(C)CC[C@@]314` (single isomer, unassigned): the result in assay [1], in assay [2], in assay [3], in assay [4], in assay [5] and in assay [6] was inactive. Further, the result in assay [7], in [8] and in [9] was inactive. Besides, the IC50 at Toll-like receptor 4 is more than 200 µM.
